Measurements published in patent US20250154154A1 (Relay Binney Street, 2nd Floor, priority 2020, published 2025).

Columns and labels:
SRC = SRC (Homo sapiens, UniProt P12931); experiment: SRC Biochemical Assay Protocol (microfluidic mobility shift assay, FLPeptide4 substrate)
Experimental: SRC Biochemical Assay Protocol
Src biochemical kinase activity was measured using a surrogate fluorescent peptide substrate [FLPeptide4; 5-FAM-EGIYGVLFKKK-CONH2 (PerkinElmer Cat. No. 760348)] with a microfluidic mobility shift assay. Reactions were performed in 384-well flat bottom polystyrene microplates (Corning Cat. No. 3570) at a final volume of 20 μL in 50 mM HEPES pH 7.4, 1 mM EGTA, 10 mM MgCl2, 0.01% Brij-35, 2 mM DTT, 0.05% BSA, 1% DMSO. Inhibition experiments were performed with compounds of the invention varying from 0.0017-100 μM with 0.26 nM SRC, 1.5 μM FLPeptide4, and 50 μM ATP. Specifically, 15 μl 1.3× mixtures of SRC+FLPeptide4+compounds were preincubated for 30 minutes at room temperature followed by addition of 5 μL 4×ATP. Reactions were carried out for 90 minutes then quenched with 40 μl 500 mM EDTA. Phosphorylated peptide product was measured with a mobility shift assay using a LabChip® EZ Reader system (PerkinElmer Cat. No. 122919). Inhibition ratios were calculated relative to neutral controls and IC50 values were obtained from dose response data fitted to a 4-parameter logistic model.

RBE cells = experiment: Cell Viability Protocol (CellTiterGlo), RBE cells; type: cell-based; settings: RBE or SNU-1079 cells, 72 or 120 hour, cell line and time not given
Experimental: RBE or SNU-1079 cells were cultured in T-75 or T-175 flasks at 37° C., 5% CO2, 95% relative humidity in RPMI 1640 medium with 10% FBS and 1% Penicillin/Streptomycin (media) and detached with 0.25% trypsin/EDTA at 80-90% confluency. Cells were then seeded in 40 μL media per well in 384-well flat-bottom polystyrene microplates (Corning Cat. No. 3570) at a seeding density of 1200 cells/well and incubated for 24 hours at 37° C. with 5% CO2, 95% relative humidity. On the next day, test compounds were prepared in 10 mM DMSO stock solution and diluted to the indicated concentrations in a 384-well compound source plate. DMSO was employed as a vehicle control. Compounds (40 nL) were transferred to 384-well cell culture plate(s) using the liquid handler Echo550. Plates were incubated at 37° C. with 5% CO2 for 72 hour or 120 hour (as indicated). CellTiterGlo reagent was warmed to 37° C. and added into each well (40 μL per well). Plates were incubated at room temperature for 30 min followed by reading on the EnSpire or EnVision plate reader. Relative viability (% remaining activity) was calculated relative to DMSO control and IC50 values were obtained from dose-response data fitted to a 4-parameter curve.

Row | IC50 (SRC) [nM] | Compound | IC50 (RBE cells) [nM]
1 | 10 to 1000 | COCCN(C)C/C=C/C(=O)N1C[C@@H]2[C@@H](C#Cc3c(-c4ccc(Oc5ccccn5)c(OC)c4)c4c(N)ncnc4n3C)[C@@H]2C1 [II-231, (E)-1-((1R,5S,6s)-6-((4-amino-5-(3-methoxy-4-(pyridin-2-yloxy)phenyl)-7-methyl-7H-pyrrolo[2,3-d]pyrimidin-6-yl)ethynyl)-3-azabicyclo[3.1.0]hexan-3-yl)-4-((2-methoxyethyl) (methyl)amino) but-2-en-1-one] | 10 to 1000
2 | 10 to 1000 | Cn1c(C#C[C@@H]2[C@H]3CN(C(=O)/C=C/CN4CCC(F)C4)C[C@@H]23)c(-c2ccc(Oc3ccccc3)cc2)c2c(N)ncnc21 (stereo partly drawn) [II-225, (E)-1-((1R,5S,6s)-6-((4-amino-7-methyl-5-(4-phenoxyphenyl)-7H-pyrrolo[2,3-d]pyrimidin-6-yl)ethynyl)-3-azabicyclo[3.1.0]hexan-3-yl)-4-(3-fluoropyrrolidin-1-yl)but-2-en-1-one] | 10 to 1000
3 | 10 to 1000 | C=CC(=O)N1CCC(C#Cc2c(-c3ccc(Oc4ccccc4)cn3)c3c(N)ncnc3n2C(C)C)CC1 [Example I-55] | 10 to 1000
4 | 10 to 1000 | C=CC(=O)N1CCC(C#Cc2c(-c3ccc(Oc4ccccc4)cc3)c3c(N)ncnc3n2C(C)c2noc(COC)n2)CC1 (stereo not shown) [Example I-58] | 10 to 1000
5 | 10 to 1000 | CN(C)C/C=C/C(=O)N1CC(C#Cc2c(-c3ccc(Oc4ccccc4)cc3)c3c(N)ncnc3n2C2CCOC2)C1 (stereo not shown) [Example I-67] | 10 to 1000
6 | 10 to 1000 | CN(C)C/C=C/C(=O)N1CCC(O)(C#Cc2c(-c3ccc(Oc4ccccc4)cc3)c3c(N)ncnc3n2C2CCOC2)CC1 (stereo not shown) [Example I-68] | 10 to 1000
7 | 10 to 1000 | C=CC(=O)N1CCC(N2CC(C#Cc3c(-c4ccc(Oc5ccccn5)cc4)c4c(N)ncnc4n3C)C2)C[C@H]1CO (stereo partly drawn) [II-244, 1-((2S)-4-(3-((4-amino-7-methyl-5-(4-(pyridin-2-yloxy)phenyl)-7H-pyrrolo[2,3-d]pyrimidin-6-yl)ethynyl)azetidin-1-yl)-2-(hydroxymethyl)piperidin-1-yl)prop-2-en-1-one] | 10 to 1000
8 | 10 to 1000 | CC(=O)N1CCC(C#Cc2c(-c3ccc(Oc4ccccc4)cc3)c3c(N)ncnc3n2C(C)C)CC1 [II-139, 1-(4-((4-amino-7-isopropyl-5-(4-phenoxyphenyl)-7H-pyrrolo[2,3-d]pyrimidin-6-yl)ethynyl)piperidin-1-yl)ethanone] | 10 to 1000
9 | 10 to 1000 | C=CC(=O)N1CCC(C#Cc2c(-c3ccc(Oc4ccccc4)cc3)c3c(N)ncnc3n2C(C)C)(OC)CC1 [Example I-35] | 10 to 1000
10 | 10 to 1000 | C=CC(=O)N1CCC(O)(C#Cc2c(-c3ccc(Oc4ccccc4)cc3)c3c(N)ncnc3n2C)CC1 [Example I-63] | 10 to 1000
11 | 10 to 1000 | CC(C)n1c(C#CC2CCN(Cc3ccccc3)CC2)c(-c2ccc(Oc3ccccc3)cc2)c2c(N)ncnc21 [II-145, 6-((1-benzylpiperidin-4-yl)ethynyl)-7-isopropyl-5-(4-phenoxyphenyl)-7H-pyrrolo[2,3-d]pyrimidin-4-amine] | 1000 to 10000
12 | 10 to 1000 | CN(C)C/C=C/C(=O)N1C[C@@H]2[C@@H](C#Cc3c(-c4ccc(Oc5cccc(F)c5)cc4)c4c(N)ncnc4n3C)[C@@H]2C1 [II-43] | ≤ 10
13 | 10 to 1000 | C=CC(=O)N1CCC(C#Cc2c(-c3ccc(Oc4ccccc4)cc3)c3c(N)ncnc3n2C2CCOCC2)CC1 [Example I-41, 1-(4-((4-amino-5-(4-phenoxyphenyl)-7-(tetrahydro-2H-pyran-4-yl)-7H-pyrrolo[2,3-d]pyrimidin-6-yl)ethynyl)piperidin-1-yl)prop-2-en-1-one] | 10 to 1000
14 | 10 to 1000 | C=CC(=O)N1CCC(C#Cc2c(-c3ccc(Oc4ccccc4F)cc3)c3c(N)ncnc3n2C2CCOC2)CC1 (stereo not shown) [Example I-62] | 10 to 1000
15 | 10 to 1000 | C=CC(=O)NCC#Cc1c(-c2ccc(Oc3ccccc3)cc2)c2c(N)ncnc2n1C [II-162, N-(3-(4-amino-7-methyl-5-(4-phenoxyphenyl)-7H-pyrrolo[2,3-d]pyrimidin-6-yl)prop-2-yn-1-yl)acrylamide] | 10 to 1000
16 | 10 to 1000 | C=CC(=O)N1CCC(C#Cc2c(-c3ccc(Oc4ccccc4)cc3)c3c(N)ncnc3n2C2CC(O)C2)CC1 (stereo not shown) [Example I-69] | 10 to 1000
17 | 10 to 1000 | C=CC(=O)N1CCC(O)(C#Cc2c(-c3ccc(Oc4ccccc4F)cc3)c3c(N)ncnc3n2C)CC1 [Example I-66] | 10 to 1000
18 | 10 to 1000 | COCCN(C)C/C=C/C(=O)N1C[C@@H]2[C@@H](C#Cc3c(-c4ccc(Oc5cccc(C)n5)cc4OC)c4c(N)ncnc4n3C)[C@@H]2C1 [II-235, (E)-1-((1R,5S,6s)-6-((4-amino-5-(2-methoxy-4-((6-methylpyridin-2-yl)oxy)phenyl)-7-methyl-7H-pyrrolo[2,3-d]pyrimidin-6-yl)ethynyl)-3-azabicyclo[3.1.0]hexan-3-yl)-4-((2-methoxyethyl) (methyl)amino)but-2-en-1-one] | 1000 to 10000
19 | ≤ 10 | CC(C)N1CCC(C#Cc2c(-c3ccc(Oc4ccccc4)cc3)c3c(N)ncnc3n2C(C)C)CC1 [II-142, 7-isopropyl-6-((1-isopropylpiperidin-4-yl)ethynyl)-5-(4-phenoxyphenyl)-7H-pyrrolo[2,3-d]pyrimidin-4-amine] | 10 to 1000
20 | 10 to 1000 | C=C(C)C(=O)N1CCC(N2CC(C#Cc3c(-c4ccc(Oc5ccccc5)cc4)c4c(N)ncnc4n3C)C2)CC1 [III-38] | 
21 | 10 to 1000 | C=CC(=O)N1CC(N2CCC(C#Cc3c(-c4ccc(Oc5ccccn5)cc4)c4c(N)ncnc4n3C(C)C)CC2)C1 [Example I-47] | 
22 | 10 to 1000 | COC(=O)C(C)n1c(C#CC2CCNCC2)c(-c2ccc(Oc3ccccc3)cc2)c2c(N)ncnc21 (stereo not shown) [II-154, methyl 2-(4-amino-5-(4-phenoxyphenyl)-6-(piperidin-4-ylethynyl)-7H-pyrrolo[2,3-d]pyrimidin-7-yl)propanoate] | 
23 | ≤ 10 | CC(C)n1c(C#CC2CCN(C3CNC3)CC2)c(-c2ccc(Oc3ccccc3)cc2)c2c(N)ncnc21 [II-153, 6-((1-(azetidin-3-yl)piperidin-4-yl)ethynyl)-7-isopropyl-5-(4-phenoxyphenyl)-7H-pyrrolo[2,3-d]pyrimidin-4-amine] | 
24 | 10 to 1000 | C=CC(=O)N1CC2C(C#Cc3c(-c4ccc(Oc5ccccc5)cc4)c4c(N)ncnc4n3C)C2C1 (stereo not shown) [III-52] | 
25 | 10 to 1000 | C=CC(=O)N1CCC(N2CC(O)(C#Cc3c(-c4ccc(Oc5ccccc5)cc4)c4c(N)ncnc4n3C)C2)CC1 [III-23] | 
26 | 10 to 1000 | C=CC(=O)N1CCC(N2CC(C#Cc3c(-c4ccc(Oc5ccccc5)cc4OC)c4c(N)ncnc4n3C)C2)CC1 [III-80] | 
27 | 10 to 1000 | 1-(4-(3-((4-amino- 7-isopropyl-5-(3- methoxy-4-(6- methylpyridin-2- yloxy)phenyl)-7H- pyrrolo[2,3- d]pyrimidin-6- yl)ethynyl)azetidin- 1-yl)piperidin-1- yl)prop-2-en-1-one [II-306] | 
28 | ≤ 10 | C=CS(=O)(=O)N1CC(N2CCC(C#Cc3c(-c4ccc(Oc5ccccc5)cc4)c4c(N)ncnc4n3C(C)C)CC2)C1 [Example I-53] | 
29 | ≤ 10 | C=CC(=O)N1CCC(N2CC(C#Cc3c(-c4ccc(Oc5ccccc5)cc4)c4c(N)ncnc4n3[C@H]3CCOC3)C2)CC1 [III-63] | 
30 | 10 to 1000 | C=CC(=O)N1CC(N2CCC(C#Cc3c(-c4ccc(Nc5ccccn5)cc4)c4c(N)ncnc4n3C(C)C)CC2)C1 [Example I-46] | 
